Data as given in patent publication US12171203B2, “Transgenic biosensor” (KDT, Inc., priority 2011, dated 2024).

Tests used:
Assay type in all cases: in vivo, C. elegans
[1] = system: Phsp-16::hRFP reporter; test: fluorescent plate reader assay of toxin dosage sensitivity, hsp-16::hRFP nematodes; conditions: 24 hr exposure, ~600 worms per well, assayed in triplicate; read-out: EC50 of red fluorescence response of Phsp-16::hRFP reporter
Text: FIGS. 3A, B, and C show the fluorescence plate-reader sensitivity and toxin response.
For instance, a protein homeostasis reporter was created by fusing heat shock protein to a nuclear localized red fluorescent protein (hsp-16.42::hRFP)(the materials and methods for the construction of the transgenic organism are described in more detail in the examples below). Exposure to heat toxicity generates induction of nuclear localization. This heat shock gene reporter was screened for gene induction capacity using a heat-shock protocol. The hsp-16::hRFP construct is exposed to a 1 hr incubation at 30 C. Gene induction was screened 4 to 24 hrs after heat shock. Significant red fluorescence is observed in the nuclei of heat-shocked worm relative to control (FIG. 5).
Toxin sensitivity of hsp-16 was confirmed with exposure to heavy metals and metalloids. To develop a rapid screen for the hsp-16::hRFP expression, a fluorescent plate reader assay was developed. To test the sensitivity of this assay, a titrating concentration of nematodes were exposed to heat shock. The worms were transferred to a 96 well plate and red fluorescence was quantified. Good sensitivity for a red fluorescence signal occurs at concentrations of 50 or more worms (FIG. 3A). Next, the toxin dosage sensitivity was measured.

[2] = system: metallothionein gene (mtl-2) promoter reporter; test: two-color nematode biosensor panel, plate reader assay, mtl-2 reporter; conditions: cadmium 1 mM, NGM plates, 15 hrs; population-normalized change relative to unexposed control
Text: (§1) Responses are population-normalized changes relative to unexposed control. Error bars indicate […] of 2 to 6 independent measurements. The label “2 line” indicates data derived from combining responses of two independently-derived MosSCI lines for the same reporter.
(§2) The seven different promoters used to create the lines were obtained from genes involved in oxidative stress response. Two genes used were alpha cystallins which respond to cytoplasmic heat shock (hsp-16.2 and hsp-16.41) (David et al. Environ. Toxicol. Chem 2003 January; 22(1):111-118; Hong et al. J. Mol. Biol 2004 November; 344(2):369-381; Candido E P M. Prog. Mol. Subcell. Biol 2002; 28:61-78; Dengg et al. J Pharmacol Toxicol Methods 2004 December; 50(3):209-214; and Strayer et al. FASEB J 2003 December; 17(15):2305-2307). […] The resulting hsRFP reporter construct expresses red fluorescence in cell nuclei. […]
(§3) Changes in expression were quantified with a plate reader assay. […]

[3] = system: ugt-1 promoter reporter; test: two-color nematode biosensor panel, plate reader assay, ugt-1 reporter; conditions: cadmium 1 mM, NGM plates, 15 hrs; population-normalized change relative to unexposed control
Text: as §1, §2, §3

[4] = system: hsp-16's (hsp-16.2, hsp-16.41) promoter reporters; test: two-color nematode biosensor panel, plate reader assay, hsp-16 reporters; conditions: cadmium 1 mM, NGM plates, 15 hrs; population-normalized change relative to unexposed control
Text: as §1, §2, §3

[5] = system: hsp-4 promoter reporter; test: two-color nematode biosensor panel, plate reader assay, hsp-4 reporter; conditions: cadmium 1 mM, NGM plates, 15 hrs; population-normalized change relative to unexposed control
Text: as §1, §2, §3

[6] = system: nematode population; test: chronic toxin exposure, effect on nematode population size; conditions: chronic exposure for 72 hrs, various concentrations
Method: FIGS. 4A, B, and C show the population effects of chronic toxin exposure.
Advantageously, the transgenic animals described in these examples can have a control reporter (e.g., constitutively expressed). Exposure to some selected agents or toxins can lead to shortened life-span, lower brood sizes or other effects that need to be controlled. The problem becomes most pronounced in chronic assays. […] Thus, it was determined a control for population mass differences between assay wells is desirable. Introduction of a second constitutively expressed reporter gene can be used to control for various population differences.

Compound	EC50 [1] [µM]	induction of metallothionein gene expression (reporter) [2]	induction of expression from ugt-1 reporter [3]	induction of expression from hsp-16's reporters [4]	induction of expression from hsp-4 reporter [5]	effect on population size [6]
[Cl][Cd][Cl] [cadmium, cadmium chloride]	~200	primarily induced	only mildly induced	only mildly induced	only mildly induced	significant population effects
sodium bis-arsenite [arsenic]	~1500	–	–	–	–	–
